From ChEMBL document CHEMBL1122438, “2-Phenylpyrazolo[1,5-a]pyrimidin-7-ones. A new class of nonsteroidal antiinflammatory drugs devoid of ulcerogenic activity” (J Med Chem, 1983) come the findings set out here.

The species entered for data set [1] is Rattus norvegicus. In words: (§1) Analgesic activity in acetic acid writhing test, activity is expressed as ED50 values. Type of data set: functional. (In general: In writhing tests, fewer writhes than in controls are read as antinociception.)
The test system of data set [2] is Rattus norvegicus. As to the kind of experiment: Percent reduction of edema in rat on 23rd day after oral administration of 30 mg/kg in antiarthritis assay. Type of data set: functional.
For data set [3], the system named is Rattus norvegicus. In words: Antiinflammatory activity evaluated by measuring % reduction of edema, 3h after oral administration of 50 mg/kg in carrageenan model. Type of data set: functional.
In data set [4] the test system is Mus musculus. As to the kind of experiment: Percent reduction of edema in mice 3h after oral administration of 30 mg/kg in carrageenan model. Type of data set: functional.
Data set [5] relates to Rattus norvegicus. As to the kind of experiment: Antiinflammatory activity evaluated by measuring % reduction of edema, 3h after oral administration of 30 mg/kg in carrageenan model. Type of data set: functional.
The subject of data set [6] is Rattus norvegicus. As to the kind of experiment: Antiinflammatory activity evaluated by measuring % reduction of edema, 3h after oral administration of 20 mg/kg in carrageenan model. Type of data set: functional.
Data set [7] has as its system Mus musculus. As to the kind of experiment: Percent reduction of edema in mice 3h after oral administration of 20 mg/kg in carrageenan model. Type of data set: functional.
Data set [8] deals with Rattus norvegicus. As to the kind of experiment: Percent reduction of edema in rat on 23rd day after oral administration of 20 mg/kg in antiarthritis assay. Type of data set: functional.
Data set [9] relates to Rattus norvegicus. In words: Percent reduction of edema in rat on 23rd day after oral administration of 20 mg/kg in antiarthritis assay; i = Inactive. The note with it: at 20 mg/kg. Type of data set: functional, organism-based. Further details: dose 20 mg/kg.
Data set [10] has as its system Rattus norvegicus. In words: Percent reduction of edema in rat on 23rd day after oral administration of 30 mg/kg in antiarthritis assay; i = Inactive. Type of data set: functional, organism-based. Details: dose 30 mg/kg. The note with it: at 30 mg/kg.
The test system of data set [11] is Mus musculus. In words: Acute toxicity was evaluated as number of mice (tested=7) died after 72nd hour when 280 mg/kg is administered intraperitoneally. Type of data set: organism-based. Details: dose 280 mg/kg, route intraperitoneal. Conditions: in vivo, ip.
The test system of data set [12] is Mus musculus. As to the kind of experiment: Acute toxicity was evaluated as number of mice (tested=7) died after 72nd hour when 260 mg/kg is administered intraperitoneally. Type of data set: organism-based. Details: dose 260 mg/kg, route intraperitoneal. The note with it: in vivo, ip.
Data set [13] is filed under the species Rattus norvegicus. As to the kind of experiment: Antiinflammatory activity in carrageenan model, activity is expressed as ED50 values. Type of data set: functional.
For data set [14], the species on record is Mus musculus. The data set is described as §1. Type of data set: functional.
Data set [15] relates to Mus musculus. In words: Analgesic activity evaluated by measuring % analgesic effect, after oral administration of 0.3 mg/kg in acetic acid writhing test. Type of data set: functional.
Data set [16] can be described thus: Therapeutic index was expressed as LD50/ED50 carragreenin model. The note with it: mouse; read-out: TI.
In data set [17] the test system is Mus musculus. As to the kind of experiment: Acute toxicity was evaluated as number of mice (tested=7) died after 72nd hour when 250 mg/kg is administered intraperitoneally. Further details: dose 250 mg/kg, route intraperitoneal. Type of data set: organism-based. Conditions: in vivo, ip.
Data set [18] has as its system Mus musculus. In words: Analgesic activity evaluated by measuring % analgesic effect, after oral administration of 30 mg/kg in acetic acid writhing test. Type of data set: functional.
Data set [19] relates to Rattus norvegicus. As to the kind of experiment: Antiinflammatory activity evaluated by measuring % reduction of edema, 3h after oral administration of 100 mg/kg in carrageenan model. Type of data set: functional.
The test system of data set [20] is Rattus norvegicus. In words: Antiinflammatory activity evaluated by measuring % reduction of edema, 3h after oral administration of 10 mg/kg in carrageenan model. Type of data set: functional.
Data set [21] concerns Mus musculus. In words: Analgesic activity evaluated by measuring % analgesic effect, after oral administration of 15 mg/kg in acetic acid writhing test. Type of data set: functional.
The species entered for data set [22] is Rattus norvegicus. In words: Ulcer index of the compound. Type of data set: functional.
Data set [23] relates to Rattus norvegicus. As to the kind of experiment: Antiinflammatory activity evaluated by measuring % reduction of edema, 3h after oral administration of 25 mg/kg in carrageenan model. Type of data set: functional.
Data set [24] relates to Mus musculus. In words: Analgesic activity evaluated by measuring % analgesic effect, after oral administration of 5 mg/kg in acetic acid writhing test. Type of data set: functional.
The subject of data set [25] is Mus musculus. As to the kind of experiment: Percent reduction of edema in mice 3h after oral administration of 17 mg/kg in carrageenan model. Type of data set: functional.
The subject of data set [26] is Mus musculus. In words: Acute toxicity was evaluated as number of mice (tested=7) died after 72nd hour when 200 mg/kg is administered intraperitoneally. Type of data set: organism-based. Details: dose 200 mg/kg, route intraperitoneal. Conditions: in vivo, ip.
Data set [27] is described as follows: Toxic activity is expressed as LD50 values. Type of data set: toxicity, organism-based. The note with it: mouse, in vivo.
Data set [28] deals with Mus musculus. In words: Acute toxicity was evaluated as number of mice (tested=7) died after 72nd hour when 270 mg/kg is administered intraperitoneally. Details: dose 270 mg/kg, route intraperitoneal. Type of data set: organism-based. Conditions: in vivo, ip.
For data set [29], the system named is Rattus norvegicus. As to the kind of experiment: Percent reduction of edema in rat on 23rd day after oral administration of 50 mg/kg in antiarthritis assay; i = Inactive. Type of data set: functional, organism-based. Conditions: at 50 mg/kg. Further details: dose 50 mg/kg.
The test system of data set [30] is Mus musculus. As to the kind of experiment: Percent reduction of edema in mice 3h after oral administration of 50 mg/kg in carrageenan model. Type of data set: functional.

Calls of active or inactive are those of the source. The rule behind the calls is not given here.

For the compound `CCCn1ccc(=O)n2nc(-c3ccccc3)cc12`, it took a dose of 29.8 mg/kg to reach the 50% effect level in data set [1] (ED50). The Reduction in data set [2] came to 33%; in [3], 70.8%; in data set [4] it was 52.1%; in data set [5] it was 52%; in data set [6] it was 31.9%.

For `O=c1ccn(Cc2ccccc2)c2cc(-c3ccccc3)nn12`, the results for the Reduction in data set [7] and in data set [8] were 5.8% and 18.2%, respectively.

In turn, `Cn1ccc(=O)n2nccc12` came in with a Reduction in data set [7] of 0%. Besides, the Reduction entry in data set [9] was “inactive”.

As to `CCCn1c(=O)ccn2nc(-c3ccccc3)cc12`, the Reduction in data set [4] is 18.9%. Further, in data set [10], the Reduction entry was “inactive”.

Compound `CCn1ccc(=O)n2nc(C)cc12` had a Reduction in data set [4] of 7.3%. In data set [10], the Reduction result was “inactive”.

`CCn1ccc(=O)n2nc(-c3ccccc3)cc12`: the Acute toxicity is recorded as 5 in data set [11]; 2 in data set [12]; 1 in [17]; 0 in data set [26]; 3 in data set [28]. The ED50 in data set [13] was found to be 7.3 mg/kg; in data set [14] it was 9.86 mg/kg. Moreover, the Reduction in data set [2] is 42.7%; in data set [19], 90.1%; in [20], 54.1%; in data set [23], 69.8%; in [25], 54.1%. For the same compound, the Analgesic effect in [15] amounted to 20%; in [18], 84.3%; in data set [21], 69.3%; in [24], 24.5%. The selectivity ratio in data set [16] was 37.1. The compound also returned a UI in data set [22] of 0.15. The same compound registered an LD50 in [27] of 271 mg/kg.

As for `CCn1ccc(=O)n2nc(-c3ccccc3)c(Br)c12`, the Reduction in data set [4] came out at 40.5%. Besides, the Reduction entry in data set [10] is “inactive”.

In the case of `CC(C)n1ccc(=O)n2nc(-c3ccccc3)cc12`, in [7], the Reduction stood at 3.5%. For the same compound, the Reduction result in data set [9] is “inactive”.

`Cc1cc(=O)n2nc(-c3ccccc3)cc2n1C`: the Reduction entry in data set [29] is “inactive”. Moreover, in data set [30], the Reduction came to 56.7%.

Turning to `CCn1ccc(=O)n2nc(-c3ccccc3)c(SC#N)c12`, the Reduction in [4] amounted to 42.2%. Besides, the Reduction entry in data set [10] is “inactive”.

`CCn1ccc(=O)n2nc(-c3ccccc3)c(N=O)c12` returned a Reduction in data set [4] of 7.03%. Also, the Reduction entry in [10] is “inactive”.

As usually defined, the ED50 is the dose at which the effect has come halfway, by size or by number of responders. A low value points to greater potency. What is called LD50 is the dose expected to kill half of the subjects tested.
